What all share (format): biochemical
The target in one experiment is T1, FLT3 (h) (Homo sapiens, UniProt P36888).
T1 construct: purchased Millipore UK Ltd (assays performed there as a service)
T1 sequence (P36888 27-993): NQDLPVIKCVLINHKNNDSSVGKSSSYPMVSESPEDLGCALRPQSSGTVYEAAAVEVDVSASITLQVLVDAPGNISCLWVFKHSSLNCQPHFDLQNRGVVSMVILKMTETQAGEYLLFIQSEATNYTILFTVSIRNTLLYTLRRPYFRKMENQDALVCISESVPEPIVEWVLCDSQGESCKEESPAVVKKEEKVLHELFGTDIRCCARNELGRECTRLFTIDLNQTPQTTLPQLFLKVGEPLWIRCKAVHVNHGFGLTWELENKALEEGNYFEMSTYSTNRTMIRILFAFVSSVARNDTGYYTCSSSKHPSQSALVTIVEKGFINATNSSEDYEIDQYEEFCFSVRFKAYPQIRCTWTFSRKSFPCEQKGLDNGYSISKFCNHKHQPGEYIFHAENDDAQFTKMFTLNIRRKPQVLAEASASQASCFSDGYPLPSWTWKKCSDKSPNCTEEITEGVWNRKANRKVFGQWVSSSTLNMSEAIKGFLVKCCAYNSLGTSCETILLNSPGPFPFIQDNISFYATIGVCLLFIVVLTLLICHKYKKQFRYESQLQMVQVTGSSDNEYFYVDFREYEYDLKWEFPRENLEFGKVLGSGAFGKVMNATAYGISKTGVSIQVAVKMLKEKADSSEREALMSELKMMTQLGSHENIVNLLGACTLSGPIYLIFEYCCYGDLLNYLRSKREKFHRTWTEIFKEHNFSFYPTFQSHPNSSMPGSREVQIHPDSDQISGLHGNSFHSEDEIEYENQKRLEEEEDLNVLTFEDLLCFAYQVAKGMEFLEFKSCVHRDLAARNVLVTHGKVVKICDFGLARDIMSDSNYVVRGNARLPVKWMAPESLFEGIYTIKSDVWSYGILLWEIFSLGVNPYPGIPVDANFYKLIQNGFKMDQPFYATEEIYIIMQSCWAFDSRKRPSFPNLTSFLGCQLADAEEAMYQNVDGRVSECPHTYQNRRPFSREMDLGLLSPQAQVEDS
Put plainly: FLT3 (h) kinase assay. The note with it: [γ-33P-ATP] 10 μM or KM values; cells of the FLT3 (h) column without (Flt4) tag. The method, then:
(§1) Kinase assays can be performed by measurement of incorporation of γ-^33P ATP into immobilized myelin basic protein (MBP). High binding white 384 well plates (Greiner) are coated with MBP (Sigma # M-1891) by incubation of 60 μL well of 20 μg/mL MBP in Tris-buffered saline (TBS; 50 mM Tris pH 8.0, 138 mM NaCl, 2.7 mM KCl) for 24 h at 4° C. Plates are washed 3× with 100 μL TBS. Kinase reactions are carried out in a total volume of 34 μL in kinase buffer (according to the need to make, for example, 5 mM Hepes pH 7.6, 15 mM NaCl, 0.01% bovine gamma globulin (Sigma #1-5506), 10 mM MgCl2, 1 mM DTT, 0.02% TritonX-100). Compound dilutions are performed in DMSO and added to assay wells to a final DMSO concentration of 1%. Each data point is measured in duplicate, and at least two duplicate assays are performed for each individual compound determination. Enzyme is added to final concentrations of 10 nM or 20 nM, for example. A mixture of unlabeled ATP and γ-^33P ATP is added to start the reaction (2×10^6 cpm of γ-^33P ATP per well (3000 Ci/mmole) and 10 μM unlabeled ATP, typically. The reactions are carried out for 1 hour at room temperature with shaking. Plates are washed 7× with TBS, followed by the addition of 50 μL well scintillation fluid (Wallac). Plates are read using a Wallac Trilux counter. This is only one format of such assays; various other formats are possible, as known to one skilled in the art.
(§2) The above assay procedure can be used to determine the IC50 for inhibition and/or the inhibition constant, Ki. […] The IC50 value is estimated by preparing a 10 point curve using a ½ log dilution series (for example, a typical curve may be prepared using the following compound concentrations: 3 μM, 1 μM, 0.3 μM, 0.1 μM, 0.03 μM, 0.01 μM, 0.003 μM, 0.001 μM, 0.0003 μM and 0 μM).
FLT3 (h) is incubated with 8 mM MOPS pH 7.0, 0.2 mM EDTA, 50 μM […], 10 mM MgAcetate and [γ-^33P-ATP] […] The reaction is initiated by the addition of the MgATP mix. […]

A further experiment concerns the target T2, TYK2 (h) (Homo sapiens, UniProt P29597).
T2 construct: purchased Millipore UK Ltd (assays performed there as a service)
Put plainly: TYK2 (h) kinase assay. The note with it: [γ-33P-ATP] 10 μM or KM values; 40 minutes at room temperature. The procedure: as §1, §2
TYK2 (h) is incubated with 8 mM MOPS pH 7.0, 0.2 mM EDTA, 250 μM […], 10 mM MgAcetate and [γ-^33P-ATP] […] The reaction is initiated by the addition of the MgATP mix. After incubation for 40 minutes at room temperature, the reaction is stopped by the addition of 3% phosphoric acid solution. 10 μL of the reaction is then spotted onto a P30 filtermat and washed three times for 5 minutes in 75 mM phosphoric acid and once in methanol prior to drying and scintillation counting.
(§3) The kinase assays described herein were performed at Millipore UK Ltd, Dundee Technology Park, Dundee DD2 1SW, UK.

The target in a further experiment is T3, FLT4 (h) (Homo sapiens, UniProt P35916).
T3 construct: purchased Millipore UK Ltd (assays performed there as a service)
Briefly: FLT4 (h) kinase assay. To be noted: [γ-33P-ATP] 10 μM or KM values; cells tagged (Flt4); read-out: IC50 (Flt4), printed in the FLT3 (h) column. The method, then: as §1, §2
FLT4 (h) is incubated with 8 mM MOPS pH 7.0, 0.2 mM EDTA, 50 μM […], 10 mM MgAcetate and [γ-^33P-ATP] […] The reaction is initiated by the addition of the MgATP mix. After incubation for 40 minutes at room temperature, the reaction is stopped by the addition of 3% phosphoric acid solution. 10 μL of the reaction is then spotted onto a P30 filtermat and washed three times for 5 minutes in 75 mM phosphoric acid and once in methanol prior to drying and scintillation counting.
as §3

Structures are written as SMILES.

T2 sequence (P29597 whole entry): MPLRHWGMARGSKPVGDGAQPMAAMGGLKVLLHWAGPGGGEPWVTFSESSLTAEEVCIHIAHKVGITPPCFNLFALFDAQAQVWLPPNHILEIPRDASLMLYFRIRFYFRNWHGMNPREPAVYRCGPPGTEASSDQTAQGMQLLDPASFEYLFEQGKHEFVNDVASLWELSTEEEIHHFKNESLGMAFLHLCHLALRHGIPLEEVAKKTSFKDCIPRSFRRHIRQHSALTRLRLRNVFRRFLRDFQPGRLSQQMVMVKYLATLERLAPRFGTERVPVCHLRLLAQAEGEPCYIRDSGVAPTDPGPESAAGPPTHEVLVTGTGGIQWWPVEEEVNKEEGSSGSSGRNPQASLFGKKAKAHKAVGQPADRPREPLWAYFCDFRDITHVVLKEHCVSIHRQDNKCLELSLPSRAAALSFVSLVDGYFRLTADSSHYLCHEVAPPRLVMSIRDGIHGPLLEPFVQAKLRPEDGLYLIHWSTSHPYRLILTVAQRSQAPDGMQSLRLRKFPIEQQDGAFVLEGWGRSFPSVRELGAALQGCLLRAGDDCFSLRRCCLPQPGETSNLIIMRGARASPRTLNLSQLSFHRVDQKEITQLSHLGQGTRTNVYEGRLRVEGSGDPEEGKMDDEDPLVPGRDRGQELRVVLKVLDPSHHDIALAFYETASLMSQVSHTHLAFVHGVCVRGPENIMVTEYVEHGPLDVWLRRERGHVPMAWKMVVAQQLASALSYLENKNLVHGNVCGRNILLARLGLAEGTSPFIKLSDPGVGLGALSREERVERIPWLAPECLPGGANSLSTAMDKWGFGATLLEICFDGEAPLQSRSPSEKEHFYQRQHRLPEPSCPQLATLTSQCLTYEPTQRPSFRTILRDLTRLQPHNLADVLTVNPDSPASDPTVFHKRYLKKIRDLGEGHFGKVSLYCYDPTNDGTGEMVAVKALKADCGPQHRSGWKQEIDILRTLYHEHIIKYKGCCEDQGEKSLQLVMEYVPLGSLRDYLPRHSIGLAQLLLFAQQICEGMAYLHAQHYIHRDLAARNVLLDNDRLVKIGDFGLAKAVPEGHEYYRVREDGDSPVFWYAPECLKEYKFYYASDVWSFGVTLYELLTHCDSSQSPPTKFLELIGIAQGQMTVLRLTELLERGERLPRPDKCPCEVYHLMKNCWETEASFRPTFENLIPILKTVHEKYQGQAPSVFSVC
T3 sequence (P35916 25-1363): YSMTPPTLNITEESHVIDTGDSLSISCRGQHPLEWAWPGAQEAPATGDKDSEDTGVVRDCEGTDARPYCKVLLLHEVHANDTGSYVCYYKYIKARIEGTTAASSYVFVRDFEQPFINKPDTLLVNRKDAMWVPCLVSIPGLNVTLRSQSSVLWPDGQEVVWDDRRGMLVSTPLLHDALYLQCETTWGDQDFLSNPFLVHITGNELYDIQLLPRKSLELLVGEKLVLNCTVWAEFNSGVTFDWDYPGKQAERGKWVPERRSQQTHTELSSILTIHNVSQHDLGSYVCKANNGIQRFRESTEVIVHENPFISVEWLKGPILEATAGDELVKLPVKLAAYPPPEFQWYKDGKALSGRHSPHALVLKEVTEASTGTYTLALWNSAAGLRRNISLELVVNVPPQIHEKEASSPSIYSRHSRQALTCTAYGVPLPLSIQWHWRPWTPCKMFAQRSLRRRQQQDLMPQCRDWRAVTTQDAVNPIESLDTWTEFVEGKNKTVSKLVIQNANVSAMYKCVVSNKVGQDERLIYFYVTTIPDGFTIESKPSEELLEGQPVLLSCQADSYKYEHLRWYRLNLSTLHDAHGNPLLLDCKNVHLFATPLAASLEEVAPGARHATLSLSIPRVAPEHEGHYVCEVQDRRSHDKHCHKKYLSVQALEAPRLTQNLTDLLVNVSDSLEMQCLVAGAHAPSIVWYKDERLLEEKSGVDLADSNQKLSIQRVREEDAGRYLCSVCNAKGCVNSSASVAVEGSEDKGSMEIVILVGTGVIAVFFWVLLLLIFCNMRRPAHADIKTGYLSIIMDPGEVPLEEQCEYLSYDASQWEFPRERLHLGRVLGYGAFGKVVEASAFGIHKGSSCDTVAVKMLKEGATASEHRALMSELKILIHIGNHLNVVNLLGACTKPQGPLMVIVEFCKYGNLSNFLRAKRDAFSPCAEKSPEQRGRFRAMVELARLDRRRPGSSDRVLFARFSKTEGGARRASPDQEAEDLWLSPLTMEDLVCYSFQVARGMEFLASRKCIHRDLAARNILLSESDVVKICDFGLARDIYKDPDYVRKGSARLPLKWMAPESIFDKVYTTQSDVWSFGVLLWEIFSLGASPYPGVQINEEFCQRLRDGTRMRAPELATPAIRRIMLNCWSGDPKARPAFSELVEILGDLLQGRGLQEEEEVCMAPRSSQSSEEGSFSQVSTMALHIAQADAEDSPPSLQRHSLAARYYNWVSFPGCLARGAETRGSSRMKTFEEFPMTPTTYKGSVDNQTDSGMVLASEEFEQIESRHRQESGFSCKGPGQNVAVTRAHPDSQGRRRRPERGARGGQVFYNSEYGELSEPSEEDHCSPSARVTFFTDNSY

Consider `CCC1CN(c2ccc(C#N)cn2)CCC1Nc1nc(Nc2ccn3c(C)cnc3c2)ncc1Cl` (stereo not shown) [Example 2, 6-(4-((5-chloro-2-((3-methylimidazo[1,2-a]pyridin-7-yl)amino)pyrimidin-4-yl)amino)-3-ethylpiperidin-1-yl)nicotinonitrile], for which, at FLT3 (h), 287 nM corresponded to half-maximal inhibition (IC50). The same measure, in the same setting: in the case of `CCC1CN(c2ccc(C#N)nn2)CCC1Nc1nc(Nc2ccn3c(C)cnc3c2)ncc1Cl` (stereo not shown) [Example 3, 6-(4-((5-chloro-2-((3-methylimidazo[1,2-a]pyridin-7-yl)amino)pyrimidin-4-yl)amino)-3-ethylpiperidin-1-yl)pyridazine-3-carbonitrile] it was 591 nM; in that of `Cc1cnc2cc(Nc3ncc(Cl)c(NC4CCN(c5ccc(C#N)nn5)CC4)n3)ccn12` [Example 12, 6-(4-((5-chloro-2-((3-methylimidazo[1,2-a]pyridin-7-yl)amino)pyrimidin-4-yl)amino)piperidin-1-yl)pyridazine-3-carbonitrile], 667 nM. Take `N#Cc1ccc(N2CCC(Nc3nc(Nc4ccn5c(C(F)F)nnc5c4)ncc3Cl)CC2)nc1` [Example 30, 6-(4-((5-chloro-2-((3-(difluoromethyl)-[1,2,4]triazolo[4,3-a]pyridin-7-yl)amino)pyrimidin-4-yl)amino)piperidin-1-yl)nicotinonitrile]: inhibition against TYK2 (h) was half-maximal at 4 nM (IC50). `Cc1nc2cc(Nc3ncc(Cl)c(NC4CCN(c5ccc(C#N)cn5)CC4)n3)ccn2n1` [Example 32, 6-(4-((5-chloro-2-((2-methyl-[1,2,4]triazolo[1,5-a]pyridin-7-yl)amino)pyrimidin-4-yl)amino)piperidin-1-yl)nicotinonitrile] came in with an IC50 at TYK2 (h) of 2 nM. Turning to `CC(C)(O)c1nc2cc(Nc3ncc(Cl)c(NC4CCN(c5ccc(C#N)nn5)CC4)n3)ccn2n1` [Example 55, 6-(4-((5-chloro-2-((2-(2-hydroxypropan-2-yl)-[1,2,4]triazolo[1,5-a]pyridin-7-yl)amino)pyrimidin-4-yl)amino)piperidin-1-yl)pyridazine-3-carbonitrile], the IC50 at FLT4 (h) is 95 nM.

Regarding `CC(O)Cn1cnc2cc(Nc3ncc(Cl)c(NC4CCN(c5ccc(C#N)cn5)CC4)n3)ccc21` (stereo not shown) [Example 61, 6-(4-((5-chloro-2-((1-(2-hydroxypropyl)-1H-benzo[d]imidazol-5-yl)amino)pyrimidin-4-yl)amino)piperidin-1-yl)nicotinonitrile], the results for the IC50 at FLT4 (h) and at TYK2 (h) were 20 nM and 0.9 nM, respectively. On the same counts, the results for `CC(C)(O)Cc1nc2ccc(Nc3ncc(Cl)c(NC4CCN(c5ccc(C#N)cn5)CC4)n3)cn2n1` [Example 67, 6-(4-((5-chloro-2-((2-(2-hydroxy-2-methylpropyl)-[1,2,4]triazolo[1,5-a]pyridin-6-yl)amino)pyrimidin-4-yl)amino)piperidin-1-yl)nicotinonitrile] are 113 nM and 8 nM. As to `CC(C)(O)Cn1nnc2cc(Nc3ncc(Cl)c(NC4CCN(c5ccc(C#N)cn5)CC4)n3)ccc21` [Example 69, 6-(4-((5-chloro-2-((1-(2-hydroxy-2-methylpropyl)-1H-benzo[d][1,2,3]triazol-5-yl)amino)pyrimidin-4-yl)amino)piperidin-1-yl)nicotinonitrile], the IC50 on FLT4 (h) was determined as 15 nM; against TYK2 (h), 0.7 nM. Take `CC(C)(O)Cc1cn2cc(Nc3ncc(Cl)c(NC4CCN(c5ccc(C#N)cn5)CC4)n3)ccc2n1` [Example 73, 6-(4-((5-chloro-2-((2-(2-hydroxy-2-methylpropyl)imidazo[1,2-a]pyridin-6-yl)amino)pyrimidin-4-yl)amino)piperidin-1-yl)nicotinonitrile]: the IC50 on FLT4 (h) stood at 87 nM.

As for `CC(C)(O)Cc1nnc2cc(Nc3ncc(Cl)c(NC4CCN(c5ccc(C#N)cn5)CC4)n3)ccn12` [Example 74, 6-(4-((5-chloro-2-((3-(2-hydroxy-2-methylpropyl)-[1,2,4]triazolo[4,3-a]pyridin-7-yl)amino)pyrimidin-4-yl)amino)piperidin-1-yl)nicotinonitrile], the IC50 on FLT4 (h) stood at 57 nM.

With `CC(C)(O)Cc1nnc2cc(Nc3ncc(Cl)c(NC4CCN(c5ccc(C#N)nn5)CC4)n3)ccn12` [Example 75, 6-(4-((5-chloro-2-((3-(2-hydroxy-2-methylpropyl)-[1,2,4]triazolo[4,3-a]pyridin-7-yl)amino)pyrimidin-4-yl)amino)piperidin-1-yl)pyridazine-3-carbonitrile], the IC50 at FLT4 (h) was determined as 202 nM.

With `CC(C)(O)Cc1nc2cc(Nc3ncc(Cl)c(NC4CCN(c5ccc(C#N)nn5)CC4)n3)ccn2n1` [Example 77, 6-(4-((5-chloro-2-((2-(2-hydroxy-2-methylpropyl)-[1,2,4]triazolo[1,5-a]pyridin-7-yl)amino)pyrimidin-4-yl)amino)piperidin-1-yl)pyridazine-3-carbonitrile], the IC50 on FLT4 (h) turned out to be 166 nM; against TYK2 (h), 9 nM.

Regarding `CC(C)(O)Cc1nc2cc(Nc3ncc(Cl)c(NC4CCN(c5ccc(C#N)cn5)CC4)n3)ccn2n1` [Example 78, 6-(4-((5-chloro-2-((2-(2-hydroxy-2-methylpropyl)-[1,2,4]triazolo[1,5-a]pyridin-7-yl)amino)pyrimidin-4-yl)amino)piperidin-1-yl)nicotinonitrile], the results for the IC50 at FLT4 (h) and at TYK2 (h) were 117 nM and 5 nM, respectively.

For orientation: IC50 means the midpoint of a concentration-inhibition curve.
